Results published in the supplement of paper PMC11061612.

Assays:
AZD5991 = compound: Cc1c2c(nn1C)CSCc1cc(n(C)n1)CSc1cc(c3ccccc3c1)OCCCc1c(C(=O)O)n(C)c3c-2c(Cl)ccc13 [AZD5991]; details: max 1 µM
In short: (§1)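 After 24 hours at 37°C and 5% CO2 in 1536-well plates holding 7.5 μl of DMEM/F12 or RPMI with 10% FBS, cancer cell lines were dosed for 72 hours, with final DMSO typically 0.2%. Viability came from CellTiter-Glo 2.0 luminescence, scaled between the means of blank wells and DMSO wells. A non-linear mixed effects model fitted a two-parameter logistic curve to each dose response to give the single-agent IC50.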

Alisertib = compound: COc1cc(Nc2ncc3c(n2)-c2ccc(Cl)cc2C(c2c(F)cccc2OC)=NC3)ccc1C(=O)O [Alisertib]; details: max 10 µM
In short: as §1

Taselisib = compound: Cc1nc(-c2cn3c(n2)-c2ccc(-c4cnn(C(C)(C)C(N)=O)c4)cc2OCC3)n(C(C)C)n1 [Taselisib]; details: max 10 µM
In short: as §1

AZD1390 = compound: CC(C)n1c(=O)n(C)c2cnc3cc(F)c(-c4ccc(OCCCN5CCCCC5)nc4)cc3c21 [AZD1390]; details: max 0.3 µM
In short: as §1

Prexasertib = compound: COc1cccc(OCCCN)c1-c1cc(Nc2cnc(C#N)cn2)n[nH]1 [Prexasertib]; details: max 1 µM
In short: as §1

AZD8186 = compound: C[C@@H](Nc1cc(F)cc(F)c1)c1cc(C(=O)N(C)C)cc2c(=O)cc(N3CCOCC3)oc12 [AZD8186]; details: max 10 µM
In short: as §1

Carboplatin = compound: C1CC(C1)(C(=O)[O-])C(=O)[O-].N.N.[Pt+2] [Carboplatin]; details: max 10 µM
In short: as §1

Venetoclax = compound: CC1(C)CCC(CN2CCN(c3ccc(C(=O)NS(=O)(=O)c4ccc(NCC5CCOCC5)c([N+](=O)[O-])c4)c(Oc4cnc5[nH]ccc5c4)c3)CC2)=C(c2ccc(Cl)cc2)C1 [Venetoclax]; details: max 1 µM
In short: as §1

Trametinib = compound: CC(=O)Nc1cccc(-n2c(=O)n(C3CC3)c(=O)c3c(Nc4ccc(I)cc4F)n(C)c(=O)c(C)c32)c1 [Trametinib]; details: max 1 µM
In short: as §1

AZD7648 = compound: Cc1cc2ncnn2cc1Nc1ncc2c(n1)n(C1CCOCC1)c(=O)n2C [AZD7648]; details: max 10 µM
In short: as §1

5-Fluorouracil = compound: O=c1[nH]cc(F)c(=O)[nH]1 [5-Fluorouracil]; details: max 20 µM
In short: as §1

[1] = compound: O=C(Nc1ccc2[nH]nc(-c3ccncc3)c2c1)[C@@H]1CCN(CC(=O)N2CCN(c3ccc(-c4ncccn4)cc3)CC2)C1; details: max 5 µM
In short: as §1

Gefitinib = compound: COc1cc2ncnc(Nc3ccc(F)c(Cl)c3)c2cc1OCCCN1CCOCC1 [Gefitinib]; details: max 10 µM
In short: as §1

Etoposide = compound: COc1cc([C@@H]2c3cc4c(cc3[C@@H](O[C@@H]3O[C@@H]5CO[C@@H](C)O[C@H]5[C@H](O)[C@H]3O)[C@H]3COC(=O)[C@H]23)OCO4)cc(OC)c1O [Etoposide]; details: max 10 µM
In short: as §1

MK-2206 = compound: NC1(c2ccc(-c3nc4ccn5c(=O)[nH]nc5c4cc3-c3ccccc3)cc2)CCC1 [MK-2206]; details: max 10 µM
In short: as §1

Crizotinib = compound: C[C@@H](Oc1cc(-c2cnn(C3CCNCC3)c2)cnc1N)c1c(Cl)ccc(F)c1Cl [Crizotinib]; details: max 10 µM
In short: as §1

AZD1775 = compound: C=CCn1c(=O)c2cnc(Nc3ccc(N4CCN(C)CC4)cc3)nc2n1-c1cccc(C(C)(C)O)n1 [AZD1775]; details: max 3 µM
In short: as §1

Savolitinib = compound: C[C@@H](c1ccc2nccn2c1)n1nnc2ncc(-c3cnn(C)c3)nc21 [Savolitinib]; details: max 1 µM
In short: as §1

AZD5153 = compound: COc1nnc2ccc(N3CCC(c4ccc(OCCN5CCN(C)C(=O)[C@H]5C)cc4)CC3)nn12 [AZD5153]; details: max 1 µM
In short: as §1

Selumetinib = compound: Cn1cnc2c(F)c(Nc3ccc(Br)cc3Cl)c(C(=O)NOCCO)cc21 [Selumetinib]; details: max 10 µM
In short: as §1

Olaparib = compound: O=C(c1cc(Cc2n[nH]c(=O)c3ccccc23)ccc1F)N1CCN(C(=O)C2CC2)CC1 [Olaparib]; details: max 10 µM
In short: as §1

AZD4320 = compound: CN(CC[C@H](CSC1=CC=CC=C1)NC2=C(C=C(C=C2)S(=O)(=O)NC(=O)C3=CC=C(C=C3)N4CCC(CC4)[C@H](C5=CC=CC=C5C6=CC=C(C=C6)Cl)O)S(=O)(=O)C(F)(F)F)CCO [AZD4320]; details: max 1 µM
In short: as §1

Gemcitabine = compound: Nc1ccn([C@@H]2O[C@H](CO)[C@@H](O)C2(F)F)c(=O)n1 [Gemcitabine]; details: max 0.3 µM
In short: as §1

AZD6738 = compound: C[C@@H]1COCCN1C2=NC(=NC(=C2)C3(CC3)[S@](=N)(=O)C)C4=C5C=CNC5=NC=C4 [AZD6738]; details: max 10 µM
In short: as §1

AZD5363 = compound: C1CN(CCC1(C(=O)N[C@@H](CCO)C2=CC=C(C=C2)Cl)N)C3=NC=NC4=C3C=CN4 [AZD5363]; details: max 10 µM
In short: as §1

Doxorubicin = compound: COc1cccc2c1C(=O)c1c(O)c3c(c(O)c1C2=O)C[C@@](O)(C(=O)CO)C[C@@H]3O[C@H]1C[C@H](N)[C@H](O)[C@H](C)O1 [Doxorubicin]; details: max 1 µM
In short: as §1

SRA737 = compound: N#Cc1cnc(Nc2cc(NC[C@H]3CNCCO3)c(C(F)(F)F)cn2)cn1 [SRA737]; details: max 10 µM
In short: as §1

Paclitaxel = compound: CC(=O)O[C@H]1C(=O)[C@@]2(C)[C@H]([C@H](OC(=O)c3ccccc3)[C@]3(O)C[C@H](OC(=O)[C@H](O)[C@@H](NC(=O)c4ccccc4)c4ccccc4)C(C)=C1C3(C)C)[C@]1(OC(C)=O)CO[C@@H]1C[C@@H]2O [Paclitaxel]; details: max 3 µM
In short: as §1

Lapatinib = compound: CS(=O)(=O)CCNCc1ccc(-c2ccc3ncnc(Nc4ccc(OCc5cccc(F)c5)c(Cl)c4)c3c2)o1 [Lapatinib]; details: max 10 µM
In short: as §1

AZD2811 = compound: CCN(CCO)CCCOc1ccc2c(Nc3cc(CC(=O)Nc4cccc(F)c4)[nH]n3)ncnc2c1 [AZD2811]; details: max 1 µM
In short: as §1

SN-38 = compound: CCc1c2c(nc3ccc(O)cc13)-c1cc3c(c(=O)n1C2)COC(=O)[C@]3(O)CC [SN-38]; details: max 0.3 µM
In short: as §1

AZD0156 = compound: CN(C)CCCOc1ccc(-c2ccc3ncc4c(c3c2)n(C2CCOCC2)c(=O)n4C)cn1 [AZD0156]; details: max 3 µM
In short: as §1

SG3199 = compound: CC1=CN2[C@@H](C1)C=NC3=CC(=C(C=C3C2=O)OC)OCCCCCOC4=C(C=C5C(=C4)N=C[C@@H]6CC(=CN6C5=O)C)OC [SG3199]; details: max 0.001 µM
In short: as §1

Dasatinib = compound: CC1=C(C(=CC=C1)Cl)NC(=O)C2=CN=C(S2)NC3=CC(=NC(=N3)C)N4CCN(CC4)CCO [Dasatinib]; details: max 2 µM
In short: as §1

Palbociclib = compound: CC(=O)c1c(C)c2cnc(Nc3ccc(N4CCNCC4)cn3)nc2n(C2CCCC2)c1=O [Palbociclib]; details: max 10 µM
In short: as §1

| Cell Line | IC50, cell viability 72 h (AZD5991) [µM] | IC50, cell viability 72 h (Alisertib) [µM] | IC50, cell viability 72 h (Taselisib) [µM] | IC50, cell viability 72 h (AZD1390) [µM] | IC50, cell viability 72 h (Prexasertib) [µM] | IC50, cell viability 72 h (AZD8186) [µM] | IC50, cell viability 72 h (Carboplatin) [µM] | IC50, cell viability 72 h (Venetoclax) [µM] | IC50, cell viability 72 h (Trametinib) [µM] | IC50, cell viability 72 h (AZD7648) [µM] | IC50, cell viability 72 h (5-Fluorouracil) [µM] | IC50, cell viability 72 h [1] [µM] | IC50, cell viability 72 h (Gefitinib) [µM] | IC50, cell viability 72 h (Etoposide) [µM] | IC50, cell viability 72 h (MK-2206) [µM] | IC50, cell viability 72 h (Crizotinib) [µM] | IC50, cell viability 72 h (AZD1775) [µM] | IC50, cell viability 72 h (Savolitinib) [µM] | IC50, cell viability 72 h (AZD5153) [µM] | IC50, cell viability 72 h (Selumetinib) [µM] | IC50, cell viability 72 h (Olaparib) [µM] | IC50, cell viability 72 h (AZD4320) [µM] | IC50, cell viability 72 h (Gemcitabine) [µM] | IC50, cell viability 72 h (AZD6738) [µM] | IC50, cell viability 72 h (AZD5363) [µM] | IC50, cell viability 72 h (Doxorubicin) [µM] | IC50, cell viability 72 h (SRA737) [µM] | IC50, cell viability 72 h (Paclitaxel) [µM] | IC50, cell viability 72 h (Lapatinib) [µM] | IC50, cell viability 72 h (AZD2811) [µM] | IC50, cell viability 72 h (SN-38) [µM] | IC50, cell viability 72 h (AZD0156) [µM] | IC50, cell viability 72 h (SG3199) [µM] | IC50, cell viability 72 h (Dasatinib) [µM] | IC50, cell viability 72 h (Palbociclib) [µM] |
| --- | --- | --- | --- | --- | --- | --- | --- | --- | --- | --- | --- | --- | --- | --- | --- | --- | --- | --- | --- | --- | --- | --- | --- | --- | --- | --- | --- | --- | --- | --- | --- | --- | --- | --- | --- |
| P31-FUJ (Acute Myeloid Leukemia) | 0.157 | 1.06 | 3.31 | > 0.3 | 0.00272 | > 10 | > 10 | 0.758 | 0.616 | > 10 | > 20 | 1.57 | > 10 | 2.76 | 1.68 | 1.74 | 0.0831 | > 1 | 0.148 | 8.97 | > 10 | 0.243 | 0.179 | 1.29 | 2.41 | 0.255 | 0.534 | 0.00509 | > 10 | 0.024 | 0.0117 | > 3 | > 0.001 | > 2 | > 10 |
| SK-LMS-1 (Other Solid Carcinomas) | > 1 | 8.33 | 4.11 | > 0.3 | 0.386 | 7.78 | > 10 | > 1 | 0.484 | > 10 | > 20 | 4.53 | > 10 | 4.43 | > 10 | 9.41 | 1.63 | > 1 | > 1 | > 10 | > 10 | > 1 | 0.0174 | > 10 | > 10 | 0.511 | > 10 | 0.0161 | > 10 | > 1 | 0.00812 | > 3 | > 0.001 | > 2 | > 10 |
| SK-MEL-1 (Melanoma) | > 1 | > 10 | > 10 | > 0.3 | 0.659 | > 10 | > 10 | > 1 | 0.00525 | > 10 | > 20 | 0.846 | > 10 | > 10 | > 10 | > 10 | > 3 | > 1 | > 1 | 0.509 | > 10 | > 1 | > 0.3 | > 10 | > 10 | > 1 | > 10 | > 3 | > 10 | > 1 | 0.135 | > 3 | > 0.001 | > 2 | > 10 |
| SK-UT-1 (Other Solid Carcinomas) | > 1 | > 10 | 8.85 | > 0.3 | 0.0216 | > 10 | > 10 | > 1 | > 1 | > 10 | > 20 | > 5 | > 10 | 3.4 | > 10 | > 10 | 1.1 | > 1 | 0.694 | > 10 | > 10 | > 1 | 0.00912 | 4.17 | > 10 | 0.971 | 3.42 | 0.0282 | > 10 | > 1 | 0.0227 | > 3 | > 0.001 | > 2 | > 10 |
| SLVL (B-Cell Non-Hodgkin's Lymphoma) | > 1 | 0.148 | 5.56 | > 0.3 | 0.0199 | > 10 | > 10 | > 1 | 0.402 | > 10 | 1.56 | > 5 | > 10 | 0.85 | > 10 | 7.08 | 0.836 | > 1 | 0.101 | 9.51 | > 10 | 0.428 | 0.0151 | 3.76 | 4.58 | 0.0768 | 2.52 | 0.00606 | > 10 | 0.195 | 0.00235 | > 3 | > 0.001 | 1.81 | > 10 |
